# Entries after “also recorded” stand apart in the source; their conditions may differ. Cf = 5(6)-carboxyfluorescein
# Tests used:
# Format in all cases: cell-based
# E. coli strain D31 = assay: Coarse growth inhibition assay, E. coli strain D31
# Method: (§1) Initial coarse-level growth inhibition assays were carried out with concentrations of peptides up to 200 μM. Further assays of growth rates (bacteriostatic activity) and cell viability (bactericidal activity) were carried out on a finer scale. […] Growth rates were derived from spline-fitted growth curves to optical density (OD) data, while cell viability was assessed by plating cultures and counting colony-forming units after 18 h. Dose–response curves were fitted to both the bacteriostatic and bactericidal data with Markov Chain Monte Carlo parameter optimization (further details in electronic supplementary material). […]
# v) Coarse growth inhibition assays.
# Bact eria in mid-logarithmic phase were used for all growth inhibition assays. The initial OD600 for all assa ys was set to 0.001 to ensure the full contact of each b acteri al cell with added AMPs.
# The assa ys were carried out in 96-well plates (Griener Bio On e, Frick enh ausen, Germ an y) in an Eon™ Microplate Spectrophotometer (BioTek Instruments, VT, USA) for 16 h while r eco rding of changes in the OD600 at 20- min intervals. For each assa y, a control culture was included with medium onl y. The AMPs used inthis assay are sh own in Tables S1and S4. vi) Dose response curv e quantif ication
# Growth inhibition assay. E. coli cells (DSM 498) wer e grown in Muller-Hinton broth (Sigma-Aldrich) for 14 h at 30 °C and count ed using a FastRead 102 counting cham ber ( Immune S yst ems, UK). The suspension w as adjusted in fresh mediu m to achieve a cell density of 5 x 104 per 80 µl. […]
# (§2) 1.25, 2.5, 5, 10, and 20 μM) in rows, and 10 µl volumes of hymenoptaecin (final concentrations of 0, 0.625, 1.25, 2.5, 5, and 10 μM) in columns. […] Th e OD600 was measured ever y hour for 12 consecutive hours using a SpectraMax M2e microplate reader (Molecular Devices, Sunnyvale, USA). […]
# Cell viability. […] Bacteria were grown for 18 h with AMPs before the number of viable cells was assessed. […] Colony-forming units (CFUs), each representing a viable cell from the culture, were counted at a dilution where each individual CFU could be distinguished.
# E. coli JM83 cells = assay: Atomic force microscopy imaging of bacterial cells; details: 20 µM abaecin, 1.5 h, 37°C
# Method: Bacteria were prepared for imaging as previously described (see electronic supplementary material). The data were analysed with NANOSCOPE […] software v. 1.40 (Veeco, USA). Three fields on each mica disc were imaged. Three-dimensional images and section profiles were prepared using WSXM v. 5.0 software. The roughness values were measured over the entire bacterial cell surface on 3 × 3 µm^2 areas. The average surface root mean square (RMS) roughness was calculated from 25 fields (300 × 300 nm^2). The data were analysed using […] v. 6 (StatSoft, Inc., Tulsa, OK, USA). Statistical significance was determined by ANOVA (Tukey's honestly significant difference test). […]
# 5 μM h ymenopt aecin. […] Th e cell surface was imaged in Anal ytical Labo rator y, Facult y of Chemistry, UMCS, Lublin, Poland using a NanoScope V AFM (Veeco, USA. All measurements were carri ed out in “Peak Force QNM” mode usin g an NSG 30 silicon tip with a spring constant of 20 N/m (NT-MDT, Russia). The data were an al yzed wi th Nanoscope Anal ysis software v1.40 (Veeco, USA). Three fields on each mica disk were imaged. Three dimensional images and section profiles were prepared using WSxM v5.0 software. The roughness values were measured over the entire bacterial cell surface on 3×3 µm2 areas. The average surface root-mean-square (RMS) roughness was calculated from 25 fields (300×300 nm2). […]
# E. coli 498 = assay: Bacteriostatic growth-rate dose-response assay, E. coli 498; details: abaecin in combination with hymenoptaecin
# Method: as §1
# v) Coarse growth inhibition assays. […]
# The assa ys were carried out in 96-well plates (Griener Bio On e, Frick enh ausen, Germ an y) in an Eon™ Microplate Spectrophotometer (BioTek Instruments, VT, USA) for 16 h while r eco rding of changes in the OD600 at 20- min intervals. […] The AMPs used inthis assay are sh own in Tables S1and S4. vi) Dose response curv e quantif ication […]
# as §2
# Cell viability. […] Bacteria were grown for 18 h with AMPs before the number of viable cells was assessed. […]
substance,measurement,setting,value
"abaecin: proline-rich peptide abaecin, species version not specified at the place (Cf-FVPYNPPRPGQSKPFPSFPGHGPFNPKIQWPYPLPNPGH-NH2)","antibacterial activity, abaecin alone","E. coli strain D31; E. coli D31, 20 µM (figure 1a) to 200 µM (data not shown), OD600, 16 h",unable to detect any antibacterial activity
same,"antibacterial activity, abaecin alone","E. coli strain D31; E. coli, tested alone at concentrations of up to 200 μM",no detectable activity
same,"impact on bacterial growth or survival, abaecin alone",E. coli strain D31; even at a concentration of 200 µM,no impact on bacterial growth or survival
same,"cell morphology and surface (AFM), abaecin alone",E. coli JM83 cells,"smoother than the control cells; also recorded: granules and grooves were visible although less pronounced, and there were fewer flagella"
same,"cell morphology and surface (AFM), abaecin alone",E. coli JM83 cells; listed as Abaecin,no significant impact on gross morphology
same,effect of abaecin on the MIC of hymenoptaecin,E. coli 498,reduce the minimal inhibitory concentration of hymenoptaecin

# Source: article PMC4426631, “Insect antimicrobial peptides show potentiating functional interactions against Gram-negative bacteria” (Proceedings of the Royal Society B: Biological Sciences, 2015)
